Data published in patent publication US4677100A, “Cephalosporin derivatives” (Banyu Pharmaceutical Co., Ltd., priority 1984, dated 1987).
≈ marks a conversion by molar mass, not a printed value. Like-named read-outs stand apart in the source and are kept apart here.

Tests used:
A. calcoaceticus No. 14 = assay: MIC, agar plate dilution method; assay type: cell-based; conditions: Acinetobacter calcoaceticus
Description: (§1) The minimum inhibitory concentrations (MIC: μg/ml) of the compounds of the present invention against various microorganisms were measured by an agar plate dilution method (inoculum size: 10^6 CFU/ml) by using Sensitivity Disk Agar (Nissui) in comparison with Cefotaxime and Ceftazidime as comparative compounds.

C. freundii No. 7 = assay: MIC, agar plate dilution method; assay type: cell-based; conditions: Citrobacter freundii
Description: as §1

E. cloaceae Nek 39 = assay: MIC, agar plate dilution method; assay type: cell-based; conditions: read-out: Minimum Inhibitory Concentration
Description: as §1

E. coli C/Rms149 = assay: MIC, agar plate dilution method; assay type: cell-based; conditions: for MIC: Escherichia coli, read-out: Minimum Inhibitory Concentration
Description: as §1

E. coli CSH2 = assay: MIC, agar plate dilution method; assay type: cell-based; conditions: 10^6 CFU/ml, Sensitivity Disk Agar; for MIC: Escherichia coli, read-out: Minimum Inhibitory Concentration
Description: as §1

E. coli CSH = assay: MIC, agar plate dilution method; assay type: cell-based; conditions: for Minimum Inhibitory Concentration: E. coli CSH, 10^6 CFU/ml, Sensitivity Disk Agar; for MIC: Escherichia coli, read-out: Minimum Inhibitory Concentration
Description: as §1

E. coli ML1410/Rte16 = assay: MIC, agar plate dilution method; assay type: cell-based; conditions: for MIC: Escherichia coli, ML1410/RTE16, read-out: Minimum Inhibitory Concentration
Description: as §1

E. coli NIHJJC-2 = assay: MIC, agar plate dilution method; assay type: cell-based; conditions: for MIC: Escherichia coli
Description: as §1

E. coli W3630/Rms212 = assay: MIC, agar plate dilution method; assay type: cell-based; conditions: for Minimum Inhibitory Concentration: E. coli W3630/Rms212, 10^6 CFU/ml, Sensitivity Disk Agar; for MIC: Escherichia coli, W3630/RMS212, read-out: Minimum Inhibitory Concentration
Description: as §1

E. coli W3630/Rms213 = assay: MIC, agar plate dilution method; assay type: cell-based; conditions: for Minimum Inhibitory Concentration: E. coli W3630/Rms213, 10^6 CFU/ml, Sensitivity Disk Agar; for MIC: Escherichia coli, W3630/RMS213, read-out: Minimum Inhibitory Concentration
Description: as §1

K. pneumoniae No. 42 = assay: MIC, agar plate dilution method; assay type: cell-based; conditions: Klebsiella pneumoniae
Description: as §1

P. mirabilis JY10 = assay: MIC, agar plate dilution method; assay type: cell-based; conditions: Proteus mirabilis
Description: as §1

P. vulgaris No. 33 = assay: MIC, agar plate dilution method; assay type: cell-based; conditions: Proteus vulgaris
Description: as §1

P. vulgaris OB1043 = assay: MIC, agar plate dilution method; assay type: cell-based; conditions: Proteus vulgaris
Description: as §1

S. aureus JS-1 = assay: MIC, agar plate dilution method; assay type: cell-based; conditions: Staphylococcus aureus
Description: as §1

S. aureus NIHJJC-1 = assay: MIC, agar plate dilution method; assay type: cell-based; conditions: Staphylococcus aureus
Description: as §1

S. marcescens No. 16-2 = assay: MIC, agar plate dilution method; assay type: cell-based; conditions: Serratia marcescens
Description: as §1

P. aeruginosa AK109 = assay: MIC, agar plate dilution method; assay type: cell-based, Pseudomonas aeruginosa; conditions: Pseudomonas aeruginosa
Description: as §1

P. aeruginosa AKR17 = assay: MIC, agar plate dilution method; assay type: cell-based, Pseudomonas aeruginosa; conditions: Pseudomonas aeruginosa
Description: as §1

P. cepacia 23 = assay: MIC, agar plate dilution method; assay type: cell-based, Pseudomonas cepacia
Description: as §1

P. maltophilia IID 1275 = assay: MIC, agar plate dilution method; assay type: cell-based, Pseudomonas maltophilia; conditions: Stenotrophomonas maltophilia
Description: as §1

S. aureus Smith = assay: treatment of experimental infection of mice; assay type: in vivo; conditions: Staphylococcus aureus
E. coli Juhl = assay: treatment of experimental infection of mice; assay type: in vivo; conditions: Escherichia coli
P. aeruginosa D15 = assay: treatment of experimental infection of mice; assay type: in vivo; conditions: Pseudomonas aeruginosa, D15
Gram-negative bacteria = conditions: background of the art; cited from earlier work
[1] = tested on: Gram-positive bacteria and Gram-negative bacteria; conditions: background of the art; cited from earlier work
Gram-positive bacteria = conditions: background of the art; cited from earlier work

With `CC(C)(O/N=C(\C(=O)N[C@@H]1C(=O)N2C(C(=O)[O-])=C(C[n+]3ccccc3)CS[C@H]12)c1csc(N)n1)C(=O)O` [Ceftazidime, reference compound] as the molecule, how does the MIC (A. calcoaceticus No. 14; NO.14, read-out: Minimum Inhibitory Concentration) read?
The MIC was 6.25 µg/mL (≈ 11.4 µM).

And the MIC (C. freundii No. 7; NO.7, read-out: Minimum Inhibitory Concentration)?
Its MIC is 1.56 µg/mL (≈ 2.85 µM).

And the MIC (E. cloaceae Nek 39)?
Its MIC is 0.78 µg/mL (≈ 1.43 µM).

And the “Minimum Inhibitory Concentration” value (E. coli C/Rms149; E. coli C/Rms149, 10^6 CFU/ml, Sensitivity Disk Agar)?
The value was 0.20 µg/mL.

What about the MIC (E. coli C/Rms149) of the same molecule?
Its MIC is 0.2 µg/mL (≈ 0.366 µM).

What about the “Minimum Inhibitory Concentration” value (E. coli CSH2) of the same molecule?
The value was 0.1 µg/mL.

And the MIC (E. coli CSH2)?
Its MIC is 0.1 µg/mL (≈ 0.183 µM).

What about the “Minimum Inhibitory Concentration” value (E. coli CSH) of the same molecule?
Its value is 0.10 µg/mL.

What about the MIC (E. coli CSH) of the same molecule?
The MIC was 0.1 µg/mL (≈ 0.183 µM).

And the “Minimum Inhibitory Concentration” value (E. coli ML1410/Rte16; E. coli ML1410/Rte16, 10^6 CFU/ml, Sensitivity Disk Agar)?
The value was 0.20 µg/mL.

And the MIC (E. coli ML1410/Rte16)?
The MIC was 0.2 µg/mL (≈ 0.366 µM).

What about the “Minimum Inhibitory Concentration” value (E. coli NIHJJC-2; E. coli NIHJJC-2, 10^6 CFU/ml, Sensitivity Disk Agar) of the same molecule?
Its value is 0.1 µg/mL.

What about the MIC (E. coli NIHJJC-2; NIHJJC2, read-out: Minimum Inhibitory Concentration) of the same molecule?
The MIC was 0.1 µg/mL (≈ 0.183 µM).

And the “Minimum Inhibitory Concentration” value (E. coli W3630/Rms212)?
The value was 0.20 µg/mL.

And the MIC (E. coli W3630/Rms212)?
The MIC was 0.2 µg/mL (≈ 0.366 µM).

What about the “Minimum Inhibitory Concentration” value (E. coli W3630/Rms213) of the same molecule?
The value was 0.20 µg/mL.

And the MIC (E. coli W3630/Rms213)?
Its MIC is 0.2 µg/mL (≈ 0.366 µM).

What about the MIC (K. pneumoniae No. 42; NO.42, read-out: Minimum Inhibitory Concentration) of the same molecule?
The MIC was 0.39 µg/mL (≈ 0.714 µM).

What about the MIC (P. mirabilis JY10; JY10, read-out: Minimum Inhibitory Concentration) of the same molecule?
The MIC was ≤ 0.05 µg/mL.

And the MIC (P. vulgaris No. 33; NO.33, read-out: Minimum Inhibitory Concentration)?
Its MIC is ≤ 0.05 µg/mL.

And the MIC (P. vulgaris OB1043; OB1043, read-out: Minimum Inhibitory Concentration)?
The MIC was ≤ 0.05 µg/mL.

And the MIC (S. aureus JS-1; JS1, read-out: Minimum Inhibitory Concentration)?
Its MIC is > 25 µg/mL.

And the MIC (S. aureus NIHJJC-1; NIHJJC1, read-out: Minimum Inhibitory Concentration)?
The MIC was 3.12 µg/mL (≈ 5.71 µM).

What about the MIC (S. marcescens No. 16-2; NO.162, read-out: Minimum Inhibitory Concentration) of the same molecule?
Its MIC is 1.56 µg/mL (≈ 2.85 µM).

And the MIC (P. aeruginosa AK109; AK109, read-out: Minimum Inhibitory Concentration)?
Its MIC is 0.39 µg/mL (≈ 0.714 µM).

What about the MIC (P. aeruginosa AKR17; AKR17, read-out: Minimum Inhibitory Concentration) of the same molecule?
Its MIC is > 25 µg/mL.

And the MIC (P. cepacia 23; Burkholderia cepacia, 23, read-out: Minimum Inhibitory Concentration)?
The MIC was 0.39 µg/mL (≈ 0.714 µM).

And the MIC (P. maltophilia IID 1275; IID1275, read-out: Minimum Inhibitory Concentration)?
Its MIC is > 25 µg/mL.

And the ED50 (S. aureus Smith)?
The ED50 was 11 mg/kg.

What about the ED50 (E. coli Juhl) of the same molecule?
Its ED50 is 0.33 mg/kg.

And the ED50 (P. aeruginosa D15)?
The ED50 was 38 mg/kg.

And the “antibacterial activity (in words)” value (Gram-negative bacteria)?
The value was “the most excellent cephalosporin derivative against Gram-negative bacteria”.

What does the source list for `CO/N=C(\C(=O)N[C@@H]1C(=O)N2C(C(=O)O)=C(COC(C)=O)CS[C@H]12)c1csc(N)n1` [Cefotaxime, reference compound]?
MIC (A. calcoaceticus No. 14; A. calcoaceticus No. 14, 10^6 CFU/ml, Sensitivity Disk Agar, read-out: Minimum Inhibitory Concentration): 25 µg/mL (≈ 54.9 µM); MIC (C. freundii No. 7; C. freundii No. 7, 10^6 CFU/ml, Sensitivity Disk Agar, read-out: Minimum Inhibitory Concentration): 0.39 µg/mL (≈ 0.856 µM); MIC (E. cloaceae Nek 39; E. cloaceae Nek 39, 10^6 CFU/ml, Sensitivity Disk Agar): 0.78 µg/mL (≈ 1.71 µM); MIC (E. coli C/Rms149): ≤ 0.05 µg/mL; MIC (E. coli CSH2): ≤ 0.05 µg/mL; Minimum Inhibitory Concentration (E. coli CSH): 0.10 µg/mL; MIC (E. coli CSH): 0.1 µg/mL (≈ 0.22 µM); MIC (E. coli ML1410/Rte16): ≤ 0.05 µg/mL; MIC (E. coli NIHJJC-2; NIHJJC2, E. coli NIHJJC-2, 10^6 CFU/ml, Sensitivity Disk Agar, read-out: Minimum Inhibitory Concentration): ≤ 0.05 µg/mL; Minimum Inhibitory Concentration (E. coli W3630/Rms212): 0.10 µg/mL; MIC (E. coli W3630/Rms212): 0.1 µg/mL (≈ 0.22 µM); Minimum Inhibitory Concentration (E. coli W3630/Rms213): 0.20 µg/mL; MIC (E. coli W3630/Rms213): 0.2 µg/mL (≈ 0.439 µM); MIC (K. pneumoniae No. 42; K. pneumoniae No. 42, 10^6 CFU/ml, Sensitivity Disk Agar, read-out: Minimum Inhibitory Concentration): ≤ 0.05 µg/mL; MIC (P. mirabilis JY10; P. mirabilis JY10, 10^6 CFU/ml, Sensitivity Disk Agar, read-out: Minimum Inhibitory Concentration): ≤ 0.05 µg/mL; MIC (P. vulgaris No. 33; P. vulgaris No. 33, 10^6 CFU/ml, Sensitivity Disk Agar, read-out: Minimum Inhibitory Concentration): ≤ 0.05 µg/mL; MIC (P. vulgaris OB1043; P. vulgaris OB1043, 10^6 CFU/ml, Sensitivity Disk Agar, read-out: Minimum Inhibitory Concentration): 0.39 µg/mL (≈ 0.856 µM); MIC (S. aureus JS-1; JS1, S. aureus JS-1, 10^6 CFU/ml, Sensitivity Disk Agar, read-out: Minimum Inhibitory Concentration): 6.25 µg/mL (≈ 13.7 µM); MIC (S. aureus NIHJJC-1; NIHJJC1, S. aureus NIHJJC-1, 10^6 CFU/ml, Sensitivity Disk Agar, read-out: Minimum Inhibitory Concentration): 0.78 µg/mL (≈ 1.71 µM); MIC (S. marcescens No. 16-2; NO.162, S. marcescens No. 16-2, 10^6 CFU/ml, Sensitivity Disk Agar, read-out: Minimum Inhibitory Concentration): 6.25 µg/mL (≈ 13.7 µM); MIC (P. aeruginosa AK109; P. aeruginosa AK109, 10^6 CFU/ml, Sensitivity Disk Agar, read-out: Minimum Inhibitory Concentration): 6.25 µg/mL (≈ 13.7 µM); MIC (P. aeruginosa AKR17; P. aeruginosa AKR17, 10^6 CFU/ml, Sensitivity Disk Agar, read-out: Minimum Inhibitory Concentration): > 25 µg/mL; MIC (P. cepacia 23; Burkholderia cepacia, P. cepacia 23, 10^6 CFU/ml, Sensitivity Disk Agar, read-out: Minimum Inhibitory Concentration): 3.12 µg/mL (≈ 6.85 µM); MIC (P. maltophilia IID 1275; IID1275, P. maltophilia IID 1275, 10^6 CFU/ml, Sensitivity Disk Agar, read-out: Minimum Inhibitory Concentration): > 25 µg/mL; antibacterial activity (in words) (Gram-negative bacteria): excellent activities; antibacterial activity (in words) [1]: excellent antibacterial activities; antibacterial activity (in words) (Gram-positive bacteria): relatively poor antibacterial activities
